Experimental data: US5151497A, “Histidyl peptide derivatives” (Japan Tobacco Inc., priority 1990, dated 1992)
Like-named read-outs stand apart in the source and are kept apart here.

Tests used:
Assay type in all cases: in vivo
Wistar male rats = experiment: Flexor reflex in spinalized rats; conditions: intravenous; for response vs control in vivo at 0.1 mg/kg / response vs control in vivo at 0.3 mg/kg: Rattus norvegicus; for response vs control in vivo at 0.1 mg/kg / response vs control in vivo at 0.3 mg/kg / Reflex amplitude (%) 10 min. after / Reflex amplitude (%) 60 min. after: pre-dose mean = 100%; for Area below the reflex amplitude linking line: covering 60 minutes
Procedure: Wistar male rats (weighing 450-520 g) were anesthetized with ether, and the cervical part of […] was exposed, into which a tracheal cannula was inserted. The vagus nerves were severed bilaterally at the cervical region. Thereafter, the cervical vertebra C1 segment was transected, and rapidly, artificial ventilation was given with the use of an artificial respirator (Shinano Factory 60 rpm. 4 ml/stroke). The rat was placed on a thermostated apparatus in which water thermostated at 37° C. was circulated and fixed thereto at forelimbs, right hindlimb, tooth and tail. A venous cannula was inserted into the femoral vein in the right hindlimb and two needle electrodes were subcutaneously inserted into the left skin of the toe, and a piece of thread was attached to the limb with the edge of the thread bonded to a force-displacement transducer. Tension of about 5 g was applied to the thread. Through the electrodes, electric stimuli of 50-100 V were applied once per 30 seconds. The flexor reflex was recorded on the polygraph via a force-displacement transducer. After the reaction became constant in about one-hours' lapse for stabilization, the test compound dissolved in saline was intravenously administered. Thereafter, the reaction was recorded for 1 hour. In the data, taking the mean of the three reactions just before administration of the test compound for 100%, the reflex amplitude at 1-, 3-, 5-, 8-, 10-, 15-, 20-, 30-, 40-, 50- and 60-minutes' lapse after administration of the test compound were calculated. In Table 3, there are shown calculated area below the straight line linking the obtained reflex amplitude at the respective above-mentioned time covering 60 […], and the reflex amplitude at 10- and 60-minutes' lapse after administration (Table 3).

ICR male mice [1] = experiment: Anti-reserpine action (antagonistic action against hypothermia); conditions: SC, mice given reserpine 5 mg/kg s.c. 3 or 3.5 hours before, from regression line; for ED (1 degC rise in body temperature): Mus musculus, 2 h, read-out: Concentration of test compound necessary for raising body temperature by 1° C. on the average for 120 minutes
Procedure: ICR male mice weighing 35-40 g were subcutaneously administered with reserpine at the dose of 5 mg/kg. About 2 hours later, each of the mice was held by a mouse-holder, and a body temperature sensor was intrarectally inserted. Thereafter, the body temperature was automatically measured every 10 minutes. The test compound dissolved in saline was subcutaneously administered 3 or 3.5 hours after administration of reserpine. After the administration of the test compound, the body temperature was measured every 10 minutes over the period of 120 minutes. The area below the body temperature line during the period was calculated, from which the regression line was estimated based upon least square method, and estimated was the amount of the test compound necessary for raising the body temperature by 1° C. on the average for 120 minutes from that just before the administration of the test compound (Table 1).

ICR male mice [2] = experiment: Anti-chlorpromazine action (locomotor stimulant action); conditions: SC, mice given chlorpromazine.HCl 5 mg/kg s.c. one hour before, from regression line; for ED (3000 locomotor counts): Mus musculus, 2 h, read-out: Concentration of test compound necessary for inducing 3000 count of automatism quantity in 2 hours
Procedure: ICR male mice weighing 35-40 g (four animals per group) were subcutaneously administered with chlorpromazine.HCl at the dose of 5 mg/kg and immediately set in the automatic locomotor-measuring apparatus (AUTOMEX). One hour later, the test compound dissolved in saline was subcutaneously administered, and the locomotor activity was measured every 15 minutes for 120 minutes. The total locomotor activity during the period of 120 minutes was calculated and the regression line was estimated based on the method of least squares, from which the amount of the test compound necessary for inducing 3000 locomotor-count was estimated (Table 2).

[3] = 10 min, 0.1 mg/kg, read-out: Reflex amplitude (%) 10 min. after
[4] = 1 h, 0.1 mg/kg, read-out: Reflex amplitude (%) 60 min. after
[5] = 1 h, 0.3 mg/kg (footnote *), read-out: Reflex amplitude (%) 60 min. after
[6] = 10 min, 0.3 mg/kg (footnote *), read-out: Reflex amplitude (%) 10 min. after

CCCC[C@H](NC(=O)[C@H]1NC(=O)C[C@H]1C)C(=O)N1CCC[C@H]1C(N)=O [Compound 31A, N-(cis-3-Methylpyroglutamyl)-L-norleucyl-L-prolinamide]
response vs control in vivo at 0.1 mg/kg (Wistar male rats; [3]): 130%
response vs control in vivo at 0.1 mg/kg (Wistar male rats; [4]): 129%
Area below the reflex amplitude linking line (Wistar male rats; 0.1 mg/kg): 8126

C[C@H]1CC(=O)N[C@@H]1C(=O)N[C@@H](Cc1c[nH]cn1)C(=O)N1CCC[C@H]1C(N)=O [Compound 2, N^α -(trans-3-Methylpyroglutamyl)-L-histidyl-L-prolinamide]
response vs control in vivo at 0.1 mg/kg (Wistar male rats; [4]): 107%

C[C@H]1CC(=O)C[C@H]1C(=O)N[C@@H](Cc1c[nH]cn1)C(=O)N1CCC[C@H]1C(N)=O (mixture of isomers) [Compound 19, N^α -(cis-2-Methyl-4-oxocyclopentanecarbonyl)-L-histidyl-L-prolinamide]
response vs control in vivo at 0.1 mg/kg (Wistar male rats; [4]): 246%
response vs control in vivo at 0.3 mg/kg (Wistar male rats; [5]): 340%

NC(=O)[C@@H]1CCCN1C(=O)[C@H](Cc1c[nH]cn1)NC(=O)[C@@H]1CCC(=O)C1 [Compound 16, N^α -[(1R)-3-Oxocyclopentanecarbonyl]-L-histidyl-L-prolinamide]
response vs control in vivo at 0.1 mg/kg (Wistar male rats; [4]): 252%

CC(C)C[C@H](NC(=O)[C@H]1NC(=O)C[C@H]1C)C(=O)N1CCC[C@H]1C(N)=O [Compound 27A, N-(cis-3-Methylpyroglutamyl)-L-leucyl-L-prolinamide]
response vs control in vivo at 0.1 mg/kg (Wistar male rats; [3]): 126%
response vs control in vivo at 0.1 mg/kg (Wistar male rats; [4]): 156%
Area below the reflex amplitude linking line (Wistar male rats; 0.1 mg/kg): 8769

CSCC[C@H](NC(=O)[C@H]1NC(=O)C[C@H]1C)C(=O)N1CCC[C@H]1C(N)=O [Compound 28A, N-(cis-3-Methylpyroglutamyl)-L-methionyl-L-prolinamide]
response vs control in vivo at 0.1 mg/kg (Wistar male rats; [3]): 125%
response vs control in vivo at 0.1 mg/kg (Wistar male rats; [4]): 195%
Area below the reflex amplitude linking line (Wistar male rats; 0.1 mg/kg): 9188

C[C@@H]1CC(=O)C[C@H]1C(=O)N[C@@H](Cc1c[nH]cn1)C(=O)N1CCC[C@H]1C(N)=O (mixture of isomers) [Compound 20, N^α -(trans-2-Methyl-4-oxocyclopentanecarbonyl)-L-histidyl-L-prolinamide]
response vs control in vivo at 0.1 mg/kg (Wistar male rats; [4]): 107%
response vs control in vivo at 0.3 mg/kg (Wistar male rats; [5]): 223%

CCC[C@H](NC(=O)[C@H]1NC(=O)C[C@H]1C)C(=O)N1CCC[C@H]1C(N)=O [Compound 29A, N-(cis-3-Methylpyroglutamyl)-L-norvalyl-L-prolinamide]
response vs control in vivo at 0.3 mg/kg (Wistar male rats; [6]): 124%
response vs control in vivo at 0.3 mg/kg (Wistar male rats; [5]): 121%
Area below the reflex amplitude linking line (Wistar male rats; 0.3 mg/kg (footnote *)): 7063

C[C@@H]1CC(=O)N[C@@H]1C(=O)N[C@@H](Cc1cnc[nH]1)C(=O)N1CSC[C@H]1C(N)=O (relative stereo) [Compound 3, 3-[N^α -(cis-3-Methylpyroglutamyl)-L-histidyl]-L-thiazolidine-4-carboxamide]
Area below the reflex amplitude linking line (Wistar male rats; 0.1 mg/kg): 13811
Reflex amplitude (%) 10 min. after (Wistar male rats; 0.1 mg/kg): 190.5%
Reflex amplitude (%) 60 min. after (Wistar male rats; 0.1 mg/kg): 277.6%
Concentration of test compound necessary for raising body temperature by 1° C. on the average for 120 minutes (ICR male mice [1]): 0.20 mg/kg
Concentration of test compound necessary for inducing 3000 count of automatism quantity in 2 hours (ICR male mice [2]): 0.47 mg/kg

NC(=O)[C@@H]1CCCN1C(=O)[C@H](Cc1c[nH]cn1)NC(=O)[C@H]1NC(=O)C[C@H]1c1ccccc1 [Compound 11, N^α -(cis-3-Phenylpyroglutamyl)-L-histidyl-L-prolinamide]
response vs control in vivo at 0.1 mg/kg (Wistar male rats; [3]): 140%
response vs control in vivo at 0.1 mg/kg (Wistar male rats; [4]): 241%
Area below the reflex amplitude linking line (Wistar male rats; 0.1 mg/kg): 11321
ED (1 degC rise in body temperature) (ICR male mice [1]): 0.28 mg/kg
ED (3000 locomotor counts) (ICR male mice [2]): 1.89 mg/kg

C[C@H]1CC(=O)N[C@@H]1C(=O)N[C@@H](Cc1c[nH]cn1)C(=O)N1CSC[C@H]1C(N)=O (relative stereo) [Compound 4, 3-[N^α -(trans-3-Methylpyroglutamyl)-L-histidyl]-L-thiazolidine-4-carboxamide]
Area below the reflex amplitude linking line (Wistar male rats; 0.1 mg/kg): 9404
Reflex amplitude (%) 10 min. after (Wistar male rats; 0.1 mg/kg): 142.8%
Reflex amplitude (%) 60 min. after (Wistar male rats; 0.1 mg/kg): 163.9%
Concentration of test compound necessary for raising body temperature by 1° C. on the average for 120 minutes (ICR male mice [1]): 0.34 mg/kg
Concentration of test compound necessary for inducing 3000 count of automatism quantity in 2 hours (ICR male mice [2]): 0.63 mg/kg

NC(=O)[C@@H]1CCCN1C(=O)[C@H](Cc1c[nH]cn1)NC(=O)C1CCC(=O)C1 (stereo partly drawn) [Compound 13, N^α -(3-Oxocyclopentanecarbonyl)-L-histidyl-L-prolinamide]
response vs control in vivo at 0.1 mg/kg (Wistar male rats; [4]): 167%

NC(=O)[C@@H]1CCCN1C(=O)[C@H](Cc1c[nH]cn1)NC(=O)[C@@H]1CCC(=O)N1 [TRH, L-pyroglutamyl-L-histidyl-L-prolinamide, reference compound]
response vs control in vivo at 0.1 mg/kg (Wistar male rats; [3]): 118%
response vs control in vivo at 0.1 mg/kg (Wistar male rats; [4]): 79.3%
Area below the reflex amplitude linking line (Wistar male rats; 0.1 mg/kg): 6418
ED (1 degC rise in body temperature) (ICR male mice [1]): 2.52 mg/kg
ED (3000 locomotor counts) (ICR male mice [2]): 6.82 mg/kg

NC(=O)C1CCCN1C(=O)C(Cc1cnc[nH]1)NC(=O)C1CCC(=O)O1 (stereo not shown) [DN1417, reference compound]
Area below the reflex amplitude linking line (Wistar male rats; 0.3 mg/kg (footnote *)): 8152
Reflex amplitude (%) 10 min. after (Wistar male rats; 0.3 mg/kg (footnote *)): 113.7%
Reflex amplitude (%) 60 min. after (Wistar male rats; 0.3 mg/kg (footnote *)): 162.8%
Concentration of test compound necessary for raising body temperature by 1° C. on the average for 120 minutes (ICR male mice [1]): 2.06 mg/kg
Concentration of test compound necessary for inducing 3000 count of automatism quantity in 2 hours (ICR male mice [2]): 4.34 mg/kg

CC1(C)CC(=O)CC1C(=O)N[C@@H](Cc1c[nH]cn1)C(=O)N1CCC[C@H]1C(N)=O (stereo partly drawn) [Compound 21, N^α -(2,2-Dimethyl-4-oxocyclopentanecarbonyl)-L-histidyl-L-prolinamide]
response vs control in vivo at 0.1 mg/kg (Wistar male rats; [4]): 145%
response vs control in vivo at 0.3 mg/kg (Wistar male rats; [5]): 274%

CCC[C@H](NC(=O)[C@H]1NC(=O)CC1(C)C)C(=O)N1CCC[C@H]1C(N)=O [Compound 33A, N-(3,3-Dimethylpyroglutamyl)-L-norvalyl-L-prolinamide]
response vs control in vivo at 0.3 mg/kg (Wistar male rats; [6]): 119%
response vs control in vivo at 0.3 mg/kg (Wistar male rats; [5]): 120%
Area below the reflex amplitude linking line (Wistar male rats; 0.3 mg/kg (footnote *)): 7172

NC(=O)[C@@H]1CCCN1C(=O)[C@H](Cc1ccccc1)NC(=O)[C@@H]1CCC(=O)C1 [Compound 37, N-[(1R)-3-oxocyclopentanecarbonyl]-L-phenylalanyl-L-prolinamide]
Area below the reflex amplitude linking line (Wistar male rats; 0.3 mg/kg (footnote *)): 5868

C[C@@H]1CC(=O)O[C@@H]1C(=O)N[C@@H](Cc1c[nH]cn1)C(=O)N1CCC[C@H]1C(N)=O [Compound 5, N^α -[(2S,3R)-Tetrahydro-3-methyl-5-oxo-2-furancarbonyl]-L-histidyl-L-prolinamide]
response vs control in vivo at 0.1 mg/kg (Wistar male rats; [4]): 168%

C[C@@H]1CC(=O)N[C@@H]1C(=O)N[C@@H](Cc1c[nH]cn1)C(=O)N1CCC[C@H]1C(N)=O [Compound 1, N^α -(cis-3-Methylpyroglutamyl)-L-histidyl-L-prolinamide]
response vs control in vivo at 0.1 mg/kg (Wistar male rats; [4]): 298%
